# Like-named read-outs stand apart in the source and are kept apart here.
# Key:
# α4β2-nAChR = molecular target: T1, α4β2-nAChR (Homo sapiens, UniProt P17787+P43681); experiment: 86Rb+ efflux nAChR functional assay, SH-EP1-hα4β2 cells; format: cell-based; conditions: EC80-EC90 carbamylcholine; SH-EP1-hα4β2; parentheses = S.E.M. as multiplication/division factor; read-out: nAChR inhibition IC50 α4β2
# T1 construct: expressed in transfected cells; host or cells: SH-EP1 epithelial cells (SH-EP1-hα4β2)
# From the text: (§1) Cell Lines and Culture: Human embryonic kidney (HEK-293) cells stably expressing human DAT, NET or SERT were maintained as previously described in Eshleman, A. J.; Carmolli, M.; Cumbay, M.; Martens, C. R.; Neve, K. A.; Janowsky, A., J. Pharmacol. Exp. Ther. 1999, 289, (2), 877-885. Use was made of several human cell lines that naturally or heterologously express specific, functional, human nAChR subtypes. Cells of the TE671/RD line naturally expresses muscle-type nAChR (a1β1γδ- or α1*-nAChR), and SH-SY5Y neuroblastoma cells naturally expresses autonomic α3β4*-nAChRs (containing α3, β4, probably α5, and sometimes β2 subunits). Different clones of SH-EP1 epithelial cell lines have been engineered to heterologously express either α4β2-nAChR, which are thought to be the most abundant, high affinity nicotine-binding nAChR in mammalian brain, or α4β4-nAChR, another possible brain nAChR subtype (SH-EP1-hα4β2 or α4β4 cells, respectively). These cells were maintained as low passage number (1-26 from our frozen stocks) cultures to ensure stable expression of native or heterologously-expressed nAChR as previously described (see Lukas, R. J.; Fryer, J. D.; Eaton, J. B.; L., G. C., Some methods for studies of nicotinic acetylcholine receptor pharmacology, in Nicotinic receptors and the Nervous System, Levine, E. D., Ed. CRC Press: Boca Raton, 2002; pp 3-27, incorporated herein by reference in its entirety). Cells were passaged once weekly by splitting just-confluent cultures 1/300 (TE671/RD), 1/5 (SH-SY5Y), or 1/20 (transfected SH-EP1) in serum-supplemented medium to maintain log-phase growth.
# (§2) After cells had adhered (generally overnight, but no sooner than 4 h later), the medium was removed and replaced with 250 μL per well of complete medium supplemented with ˜350,000 cpm of ^86Rb^+ (PerkinElmer Life and Analytical Sciences, Boston, Mass.) and counted at 40% efficiency using Cerenkov counting (TriCarb 1900 liquid scintillation analyzer[…]; PerkinElmer Life Sciences).
# (§3) After at least 4 h and typically overnight, ^86Rb^+ efflux was measured using the “flip-plate” technique. See Lukas, R. J.; Fryer, J. D.; Eaton, J. B.; L., G. C., Some methods for studies of nicotinic acetylcholine receptor pharmacology, in Nicotinic receptors and the Nervous System, Levine, E. D., Ed. CRC Press: Boca Raton, 2002; pp 3-27, incorporated herein by reference in its entirety). Briefly, after aspiration of the bulk of ^86Rb^+ loading medium from each well of the “cell plate,” each well containing cells was rinsed 3× with 2 mL of fresh ^86Rb^+ efflux buffer (130 mM NaCl, 5.4 mM KCl, 2 mM CaCl2, 5 mM glucose, 50 mM HEPES, pH 7.4) to remove extracellular ^86Rb^+. Following removal of residual rinse buffer by aspiration, the flip-plate technique was used again to simultaneously introduce 1.5 mL of fresh efflux buffer containing drugs of choice at indicated final concentrations from a 24-well “efflux/drug plate” into the wells of the cell plate. After a 5 min incubation, the solution was “flipped” back into the efflux/drug plate, and any remaining buffer in the cell plate was removed by aspiration. Cells remaining in the cell plate were lysed and suspended by addition of 1.5 mL of 0.1 M NaOH, 0.1% sodium dodecyl sulfate to each well.
# (§4) Similarly, the sum of ^86Rb^+ in cell plates and efflux/drug plates also determined the efficiency of ^86Rb^+ loading (the percentage of applied ^86Rb^+ actually loaded into cells).
# (§5) Specific efflux was then taken as the difference in control samples between total and non-specific ^86Rb^+ efflux. Any intrinsic agonist activity of test drugs was ascertained using samples containing test drug only at different concentrations and was normalized, after subtraction of non-specific efflux, to specific efflux in test drug-free, control samples.
# α4β4-nAChR = molecular target: T2, α4β4-nAChR (Homo sapiens, UniProt P30926+P43681); experiment: 86Rb+ efflux nAChR functional assay, SH-EP1-hα4β4 cells; format: cell-based; conditions: EC80-EC90 carbamylcholine, parentheses = S.E.M. as multiplication/division factor, read-out: nAChR inhibition IC50 α4β4
# T2 construct: expressed in transfected cells; host or cells: SH-EP1 epithelial cells (SH-EP1-hα4β4)
# From the text: as §1, §2, §3, §4, §5
# NE transporters [h(NET)] = molecular target: T3, NE transporters [h(NET)] (Homo sapiens, UniProt P23975); experiment: Inhibition of [3H]norepinephrine uptake into HEK293 cells stably expressing hNET; format: cell-based; conditions: HEK293-hNET; mean ± standard error of three independent experiments; read-out: monoamine uptake inhibition IC50 [3H]NE
# T3 construct: expressed in transfected cells; host or cells: HEK-293
# From the text: as §1
# (§6) See, for example, Damaj, M. I.; Carroll, F. I.; Eaton, J. B.; Navarro, H. A.; Blough, B. E.; Mirza, S.; Lukas, R. J.; Martin, B. R., Mol. Pharmacol. 2004, 66, (3), 675-682 and Eshleman, A. J.; Carmolli, M.; Cumbay, M.; Martens, C. R.; Neve, K. A.; Janowsky, A., J. Pharmacol. Exp. Ther. 1999, 289, (2), 877-885, both incorporated by reference herein in their entireties.
# [1] = molecular target: T4, muscle-type nAChR (α1β1γδ- or α1*-nAChR) (Homo sapiens, UniProt P02708+P07510+P11230+Q07001); experiment: 86Rb+ efflux nAChR functional assay, TE671/RD cells; format: cell-based; conditions: nAChR inhibition IC50 α1*β1, EC80-EC90 carbamylcholine, parentheses = S.E.M. as multiplication/division factor
# T4 construct: Cells of the TE671/RD line naturally expresses muscle-type nAChR; endogenous in cells; host or cells: TE671/RD cells
# From the text: as §1, §2, §3, §4, §5
# [2] = molecular target: T5, 5HT transporters [(h)SERT] (Homo sapiens, UniProt P31645); experiment: Inhibition of [3H]serotonin uptake into HEK293 cells stably expressing hSERT; format: cell-based
# T5 construct: expressed in transfected cells; host or cells: HEK-293
# From the text: as §1, §6
# [3] = molecular target: T6, human DA transporters [(h)DAT] (Homo sapiens, UniProt Q01959); experiment: Inhibition of [3H]dopamine uptake into HEK293 cells stably expressing hDAT; format: cell-based
# T6 construct: expressed in transfected cells; host or cells: HEK-293
# From the text: as §1, §6
# [4] = system: Male Institute of Cancer Research (ICR) mice; experiment: Tail-flick test, blockade of nicotine-induced antinociception; format: in vivo; conditions: mice, pretreatment 15 min before nicotine 2.5 mg/kg s.c., tested 5 min after nicotine; for ED50: Mus musculus, 5 min, read-out: AD50 Tail-flick
# From the text: (§7) Animals: Male Institute of Cancer Research (ICR) mice (weighing 20-25 g) obtained from Harlan (Indianapolis, Ind.) were used throughout the study. Animals were housed in an Association for Assessment and Accreditation of Laboratory Animal Care-approved facility, were placed in groups of six, and had free access to food and water. Studies were approved by the Institutional Animal Care and Use Committee of Virginia Commonwealth University.
# Tail-Flick Test: Antinociception for pain mediated at the spinal level was assessed by the tail-flick method of D'Amour, F. E.; Smith, D. L., J. Pharmacol. Exp. Ther. 1941, 72, 74-79, incorporated herein by reference in its entirety. In brief, mice were lightly restrained while a radiant heat source was shone onto the upper portion of the tail. To minimize tissue damage, a maximum latency of 10 s was imposed. Latency to remove the tail from the heat source was recorded for each animal. […] Antinociceptive response was calculated as the percentage of maximum possible effect (% MPE), where % MPE=[(test control)/(10 control)]×100.
# [5] = system: Male Institute of Cancer Research (ICR) mice; experiment: Hot-plate test, blockade of nicotine-induced antinociception; format: in vivo; conditions: pretreatment 15 min before nicotine 2.5 mg/kg s.c., tested 5 min after nicotine; for ED50: Mus musculus, read-out: AD50 Hot-plate
# From the text: as §7
# Hot-Plate Test: Mice were placed into a 10-cm wide glass cylinder on a hot plate (Thermojust Apparatus) maintained at 55° C. for assessment of pain responses mediated at supraspinal levels. To minimize tissue damage, a maximum exposure to the hot plate 40 s was imposed. Measures of control latencies (time until the animal jumped or licked its paws; typically 8-12 s) were done twice for stimuli applied at least 10 min apart for each mouse. Antinociceptive responses after test drug administrations were determined and calculated as the % MPE, where % MPE=[(test latency in s−control latency in s)/(40 s−control latency in s)×100]. Groups of 8 to 12 animals were used for each drug condition. […] The animals were then tested 5 min after administration of a subcutaneous dose of 2.5 mg/kg nicotine.
# [6] = system: Male Institute of Cancer Research (ICR) mice; experiment: Body temperature, antagonism of nicotine-induced hypothermia; format: in vivo; conditions: pretreatment 15 min before nicotine 2.5 mg/kg s.c., tested 30 min after nicotine
# Protocol: as §7
# Body Temperature: Rectal temperature was measured by a thermistor probe (inserted 24 mm) and digital thermometer (YSI Inc., Yellow Springs, Ohio). Readings were taken just before and 30 min after subcutaneous injection of either saline or 2.5 mg/kg nicotine. The difference in rectal temperature before and after treatment was calculated for each mouse. The ambient temperature of the laboratory varied from 21 to 24° C. from day to day. […] The animals were then tested 30 min after administration of a subcutaneous dose of 2.5 mg/kg nicotine.
# [7] = system: Male Institute of Cancer Research (ICR) mice; experiment: Locomotor activity, antagonism of nicotine effect; format: in vivo; conditions: for AD50 Locomotion: pretreatment 15 min before nicotine […] s.c.
# From the text: as §7
# Locomotor Activity: Mice were placed into individual Omnitech photocell activity cages (28×16.5 cm; Omnitech Electronics, Columbus, Ohio) 5 min after subcutaneous administration of either 0.9% saline or nicotine (1.5 mg/kg). Interruptions of the photocell beams (two banks of eight cells each) were then recorded for the next 10 min. Data were expressed as the number of photocell interruptions.
# T5 sequence (P31645 whole entry): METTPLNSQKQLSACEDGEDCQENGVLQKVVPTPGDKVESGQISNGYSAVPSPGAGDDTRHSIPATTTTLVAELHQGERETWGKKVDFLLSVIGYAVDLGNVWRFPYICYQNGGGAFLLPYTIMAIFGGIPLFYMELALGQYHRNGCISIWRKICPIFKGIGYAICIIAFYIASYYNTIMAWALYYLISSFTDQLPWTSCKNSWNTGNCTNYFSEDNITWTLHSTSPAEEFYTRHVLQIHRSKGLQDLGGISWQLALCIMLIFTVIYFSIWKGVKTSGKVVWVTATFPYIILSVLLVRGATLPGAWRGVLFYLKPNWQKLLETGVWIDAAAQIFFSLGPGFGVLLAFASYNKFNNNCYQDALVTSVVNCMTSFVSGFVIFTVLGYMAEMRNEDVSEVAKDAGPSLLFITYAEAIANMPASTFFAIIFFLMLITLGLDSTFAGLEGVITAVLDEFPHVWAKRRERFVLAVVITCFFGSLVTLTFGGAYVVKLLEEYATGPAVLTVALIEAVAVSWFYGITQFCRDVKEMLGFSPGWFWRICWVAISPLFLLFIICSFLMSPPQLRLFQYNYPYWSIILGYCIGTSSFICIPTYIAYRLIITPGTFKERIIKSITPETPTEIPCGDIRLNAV
# T4 sequence (P02708 21-457): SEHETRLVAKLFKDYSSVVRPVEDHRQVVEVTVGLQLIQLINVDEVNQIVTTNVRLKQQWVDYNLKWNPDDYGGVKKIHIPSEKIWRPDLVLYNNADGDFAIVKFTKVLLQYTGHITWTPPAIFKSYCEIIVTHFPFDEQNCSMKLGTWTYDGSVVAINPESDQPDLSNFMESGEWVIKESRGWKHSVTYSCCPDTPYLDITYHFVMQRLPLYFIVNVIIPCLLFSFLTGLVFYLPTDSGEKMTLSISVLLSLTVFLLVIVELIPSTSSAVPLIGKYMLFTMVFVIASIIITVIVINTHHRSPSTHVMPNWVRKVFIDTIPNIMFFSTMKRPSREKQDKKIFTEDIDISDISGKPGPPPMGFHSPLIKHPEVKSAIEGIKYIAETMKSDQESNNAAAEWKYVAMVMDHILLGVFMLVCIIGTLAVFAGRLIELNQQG
# T4 sequence (P11230 24-501): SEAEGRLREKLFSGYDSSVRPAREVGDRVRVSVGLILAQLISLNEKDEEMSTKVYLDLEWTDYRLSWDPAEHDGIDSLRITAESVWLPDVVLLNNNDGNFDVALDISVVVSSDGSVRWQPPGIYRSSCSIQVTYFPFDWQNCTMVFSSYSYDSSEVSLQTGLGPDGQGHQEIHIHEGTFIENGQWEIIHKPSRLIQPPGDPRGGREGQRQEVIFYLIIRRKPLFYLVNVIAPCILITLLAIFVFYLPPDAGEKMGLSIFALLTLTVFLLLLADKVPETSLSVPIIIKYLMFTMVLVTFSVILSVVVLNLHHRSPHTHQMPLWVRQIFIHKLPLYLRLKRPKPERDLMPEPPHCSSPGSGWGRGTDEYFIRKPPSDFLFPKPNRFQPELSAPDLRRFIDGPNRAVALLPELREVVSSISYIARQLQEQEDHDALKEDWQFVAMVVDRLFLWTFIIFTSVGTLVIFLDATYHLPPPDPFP
# T4 sequence (P07510 23-517): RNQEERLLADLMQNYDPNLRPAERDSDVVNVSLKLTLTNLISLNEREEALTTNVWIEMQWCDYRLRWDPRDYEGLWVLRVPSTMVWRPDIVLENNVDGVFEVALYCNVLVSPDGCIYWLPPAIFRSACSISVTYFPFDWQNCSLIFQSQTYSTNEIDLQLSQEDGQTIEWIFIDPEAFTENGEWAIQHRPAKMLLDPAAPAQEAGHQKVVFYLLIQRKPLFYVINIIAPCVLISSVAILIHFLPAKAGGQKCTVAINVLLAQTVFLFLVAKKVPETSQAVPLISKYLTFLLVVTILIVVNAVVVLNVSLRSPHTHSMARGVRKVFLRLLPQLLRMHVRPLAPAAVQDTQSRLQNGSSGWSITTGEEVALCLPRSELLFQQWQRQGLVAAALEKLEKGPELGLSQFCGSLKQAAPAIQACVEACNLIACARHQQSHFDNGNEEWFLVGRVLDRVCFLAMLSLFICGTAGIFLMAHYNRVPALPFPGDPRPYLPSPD
# T4 sequence (Q07001 22-517): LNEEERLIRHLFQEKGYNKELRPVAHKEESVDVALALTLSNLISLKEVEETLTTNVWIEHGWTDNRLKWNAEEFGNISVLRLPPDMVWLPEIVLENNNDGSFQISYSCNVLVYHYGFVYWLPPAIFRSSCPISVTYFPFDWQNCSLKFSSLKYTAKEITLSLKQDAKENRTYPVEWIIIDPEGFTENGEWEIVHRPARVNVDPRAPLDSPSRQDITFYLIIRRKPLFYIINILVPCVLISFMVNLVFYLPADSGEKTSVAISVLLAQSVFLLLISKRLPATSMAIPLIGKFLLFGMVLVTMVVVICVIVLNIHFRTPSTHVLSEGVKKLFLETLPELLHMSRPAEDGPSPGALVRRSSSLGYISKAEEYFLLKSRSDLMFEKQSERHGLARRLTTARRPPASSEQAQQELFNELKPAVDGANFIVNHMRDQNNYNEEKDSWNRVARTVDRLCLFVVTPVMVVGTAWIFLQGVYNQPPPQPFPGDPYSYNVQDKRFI
# T6 sequence (Q01959 whole entry): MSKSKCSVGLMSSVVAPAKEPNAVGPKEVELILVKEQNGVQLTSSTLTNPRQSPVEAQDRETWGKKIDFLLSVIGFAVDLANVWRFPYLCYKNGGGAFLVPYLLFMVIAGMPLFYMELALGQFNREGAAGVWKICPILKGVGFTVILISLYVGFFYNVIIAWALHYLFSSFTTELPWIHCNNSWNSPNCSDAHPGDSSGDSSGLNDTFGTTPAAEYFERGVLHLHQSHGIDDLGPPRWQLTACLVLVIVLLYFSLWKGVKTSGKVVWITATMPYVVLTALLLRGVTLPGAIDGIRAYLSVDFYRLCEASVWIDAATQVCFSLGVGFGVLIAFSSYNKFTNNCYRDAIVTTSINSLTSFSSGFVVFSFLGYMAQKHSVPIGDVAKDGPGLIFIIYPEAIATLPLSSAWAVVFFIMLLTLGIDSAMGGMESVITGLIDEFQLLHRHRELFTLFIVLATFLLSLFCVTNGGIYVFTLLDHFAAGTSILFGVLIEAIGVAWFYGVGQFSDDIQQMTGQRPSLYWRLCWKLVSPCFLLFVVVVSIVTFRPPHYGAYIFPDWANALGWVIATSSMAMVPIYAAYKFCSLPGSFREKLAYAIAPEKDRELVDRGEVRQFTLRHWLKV
# T3 sequence (P23975 whole entry): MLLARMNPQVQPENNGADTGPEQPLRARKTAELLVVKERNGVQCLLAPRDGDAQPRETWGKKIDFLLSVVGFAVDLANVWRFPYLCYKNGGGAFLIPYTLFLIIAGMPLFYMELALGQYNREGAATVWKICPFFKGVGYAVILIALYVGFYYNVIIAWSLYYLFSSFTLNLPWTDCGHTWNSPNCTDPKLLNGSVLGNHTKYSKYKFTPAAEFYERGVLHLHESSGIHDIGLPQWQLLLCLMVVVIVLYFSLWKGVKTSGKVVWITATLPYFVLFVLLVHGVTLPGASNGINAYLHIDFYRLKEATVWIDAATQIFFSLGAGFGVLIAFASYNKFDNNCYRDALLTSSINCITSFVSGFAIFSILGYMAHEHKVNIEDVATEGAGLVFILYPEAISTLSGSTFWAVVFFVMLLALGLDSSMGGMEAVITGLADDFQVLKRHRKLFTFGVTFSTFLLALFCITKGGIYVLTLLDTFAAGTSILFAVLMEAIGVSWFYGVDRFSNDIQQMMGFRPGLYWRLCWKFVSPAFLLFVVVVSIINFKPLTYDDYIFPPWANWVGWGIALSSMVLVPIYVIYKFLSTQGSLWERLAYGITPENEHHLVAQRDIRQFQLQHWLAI
# T2 sequence (P43681 29-627 limits assumed): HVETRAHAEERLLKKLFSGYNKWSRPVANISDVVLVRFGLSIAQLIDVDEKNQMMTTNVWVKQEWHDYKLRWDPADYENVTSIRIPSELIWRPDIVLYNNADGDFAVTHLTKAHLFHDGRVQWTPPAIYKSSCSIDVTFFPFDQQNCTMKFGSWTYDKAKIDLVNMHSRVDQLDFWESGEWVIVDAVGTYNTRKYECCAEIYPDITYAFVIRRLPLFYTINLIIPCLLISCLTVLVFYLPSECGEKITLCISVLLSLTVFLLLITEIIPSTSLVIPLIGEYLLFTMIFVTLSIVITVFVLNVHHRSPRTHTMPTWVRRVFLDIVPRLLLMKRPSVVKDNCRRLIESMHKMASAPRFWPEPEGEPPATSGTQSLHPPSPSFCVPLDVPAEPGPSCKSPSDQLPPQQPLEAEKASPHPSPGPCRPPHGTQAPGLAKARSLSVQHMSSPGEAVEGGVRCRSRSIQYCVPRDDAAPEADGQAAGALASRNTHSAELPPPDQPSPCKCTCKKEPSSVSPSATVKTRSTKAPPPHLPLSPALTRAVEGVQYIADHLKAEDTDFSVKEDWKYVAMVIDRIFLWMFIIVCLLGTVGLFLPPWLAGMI
# T2 sequence (P30926 22-498): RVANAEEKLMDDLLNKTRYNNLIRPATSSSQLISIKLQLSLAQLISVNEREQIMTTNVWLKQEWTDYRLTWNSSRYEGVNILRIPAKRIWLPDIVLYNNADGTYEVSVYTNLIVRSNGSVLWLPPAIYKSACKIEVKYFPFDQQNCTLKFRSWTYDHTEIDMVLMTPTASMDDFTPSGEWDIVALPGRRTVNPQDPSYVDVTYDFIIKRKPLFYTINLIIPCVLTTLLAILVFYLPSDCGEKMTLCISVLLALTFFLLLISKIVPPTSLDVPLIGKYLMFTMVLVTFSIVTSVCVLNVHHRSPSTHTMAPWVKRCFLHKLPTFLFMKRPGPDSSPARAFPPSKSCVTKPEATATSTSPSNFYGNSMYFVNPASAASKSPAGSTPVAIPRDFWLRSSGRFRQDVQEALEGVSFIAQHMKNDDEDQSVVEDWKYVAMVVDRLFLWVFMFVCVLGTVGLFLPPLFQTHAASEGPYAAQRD
Compound,IC50 (α4β2-nAChR) [µM],IC50 (α4β4-nAChR) [µM],IC50 (NE transporters [h(NET)]) [µM],IC50 [1] [µM],ED50 [4] [mg/kg],ED50 [5] [mg/kg],AD50 Hot-plate [5],AD50 Hypothermia [6],AD50 Locomotion [7],also measured
"CC1NC(C)(C)COC1(O)c1ccccn1 (racemic) [Compound 6, 3,5,5-Trimethyl-2-(pyridin-2-yl)morpholin-2-ol]",> 100,> 100,7.95 ± 1.8,> 100,,,,,,"IC50 ([2]; HEK293-hSERT, mean ± standard error of three independent experiments, read-out: monoamine uptake inhibition IC50 [3H]5HT): > 10 µM; IC50 [3]: > 10 µM"
"CC(NC(C)(C)C)C(=O)c1cccc(Cl)c1 (racemic) [Compound 2, (±)-2-tert-butylamino-3′-chloropropiophenone, reference compound]",,,,,1.2,15,15 mg/kg,9.2 mg/kg,,"AD50 Tail-flick [4]: 1.2 mg/kg; ED50 ([6]; Mus musculus, 0.5 h, read-out: AD50 Hypothermia): 9.2 mg/kg"
"CCC[C@@H]1NC(C)(C)CO[C@@]1(O)c1cccc(Cl)c1 [Compound 4t, (2S,3S)-2-(3-Chlorophenyl)-5,5-dimethyl-3-propyl-morpholin-2-ol]",,,,,0.004,,IA (IA: AD50 > 15 mg/kg),IA (IA: AD50 > 15 mg/kg),4.7 mg/kg,
"CC1NC(C)(C)COC1(O)c1cccnc1 (racemic) [Compound 5, 3,5,5-Trimethyl-2-(pyridin-3-yl)morpholin-2-ol]",> 100,> 100,> 10,> 100,,,,,,"IC50 [2]: > 10 µM; IC50 ([3]; HEK293-hDAT, mean ± standard error of three independent experiments, read-out: monoamine uptake inhibition IC50 [3H]DA): > 10 µM"
"C[C@@H]1NC(C)(C)CO[C@@]1(O)c1cccc(Cl)c1 [Compound (2S,3S)-4a, (2S,3S)-2-(3-Chlorophenyl)-3,5,5-trimethylmorpholin-2-ol, reference compound]",,,,,0.2,1,1 mg/kg,,0.9 mg/kg,"ED50 ([7]; Mus musculus, pretreatment 15 min before nicotine 1.5 mg/kg s.c., read-out: AD50 Locomotion): 0.9 mg/kg"
"C[C@H]1NC(C)(C)CO[C@]1(O)c1cccc(Cl)c1 [Compound (2R,3R)-4a, (2R,3R)-2-(3-Chlorophenyl)-3,5,5-trimethylmorpholin-2-ol, reference compound]",,,,,2.5,10.3,,IA (IA: AD50 > 15 mg/kg),IA (IA: AD50 > 15 mg/kg),

# Source: patent US8906908B2, “Hydroxybupropion analogues for treating drug dependence” (priority 2010, dated 2014)
